Results published in ChEMBL document CHEMBL1201862, “PubChem BioAssay data set” (2004).
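Five concentrations, 48 hours, 96-well plates. GI50 marks 50% less growth.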 The source made the active and inactive calls. Rule as the data show it: active = GI50 up to about 1.1 µM and inactive = higher.

Key:
Test in all cases: DTP human tumour cell line panel, 48 h
RXF 393 = system: RXF 393
SK-MEL-2 = system: SK-MEL-2
SF-295 = system: SF-295
K562 = system: K562
SR = system: SR
SK-MEL-28 = system: SK-MEL-28
MDA-MB-231 = system: MDA-MB-231
MCF7 = system: MCF7
CAKI-1 = system: CAKI-1
NCI-H460 = system: NCI-H460
MDA-MB-435 = system: MDA-MB-435
CCRF-CEM = system: CCRF-CEM
NCI-H522 = system: NCI-H522
RPMI-8226 = system: RPMI-8226
HL-60 = system: HL-60
SF-539 = system: SF-539
UACC-62 = system: UACC-62
HOP-92 = system: HOP-92
HCC 2998 = system: HCC 2998

Structure (SMILES)	GI50 (RXF 393)	GI50 (SK-MEL-2)	GI50 (SF-295)	GI50 (K562)	GI50 (SR)	GI50 (SK-MEL-28)	GI50 (MDA-MB-231)	GI50 (MCF7)	GI50 (CAKI-1)	GI50 (NCI-H460)	GI50 (MDA-MB-435)	GI50 (CCRF-CEM)	GI50 (NCI-H522)	GI50 (RPMI-8226)	GI50 (HL-60)	GI50 (SF-539)	GI50 (UACC-62)	GI50 (HOP-92)	GI50 (HCC 2998)
O=C(Nc1nnc(-c2ccccc2)o1)C(SC(=S)N1CCCCC1)c1ccccc1 (stereo unspecified)	26.3 µM (inactive)	17.7 µM (inactive)	14.1 µM (inactive)	9.55 µM (inactive)	4.98 µM (inactive)	24.1 µM (inactive)	38.5 µM (inactive)	23.4 µM (inactive)	18.9 µM (inactive)	7.66 µM (inactive)	21.3 µM (inactive)	3.35 µM (inactive)	23.5 µM (inactive)	16.2 µM (inactive)	3.11 µM (inactive)	28.1 µM (inactive)	–	–	–
CC(C)(C)c1cc(C2NC(=O)NC2=O)cc(C(C)(C)C)c1O (stereo unspecified)	33.3 µM (inactive)	> 100 µM (inactive)	64.4 µM (inactive)	33.9 µM (inactive)	28.8 µM (inactive)	31.7 µM (inactive)	35.6 µM (inactive)	24.7 µM (inactive)	> 100 µM (inactive)	–	31 µM (inactive)	26.1 µM (inactive)	32.8 µM (inactive)	66.5 µM (inactive)	–	> 100 µM (inactive)	45.1 µM (inactive)	38.1 µM (inactive)	–
COc1ccc2c(c1)[n+]([O-])c1cc(C#N)ccc1[n+]2[O-]	47.2 µM (inactive)	4.27 µM (inactive)	0.767 µM (active)	6.76 µM (inactive)	4.08 µM (inactive)	12.9 µM (inactive)	12.5 µM (inactive)	4.84 µM (inactive)	4.09 µM (inactive)	0.547 µM (active)	2.25 µM (inactive)	–	5.62 µM (inactive)	–	4.63 µM (inactive)	3.41 µM (inactive)	2.94 µM (inactive)	6.56 µM (inactive)	–
C=CCn1c(=O)c2ccccc2[n+]2c(C)c(C(=O)OCC)sc12	> 100 µM (inactive)	> 100 µM (inactive)	42.7 µM (inactive)	> 100 µM (inactive)	> 100 µM (inactive)	> 100 µM (inactive)	> 100 µM (inactive)	> 100 µM (inactive)	> 100 µM (inactive)	> 100 µM (inactive)	> 100 µM (inactive)	> 100 µM (inactive)	> 100 µM (inactive)	> 100 µM (inactive)	> 100 µM (inactive)	> 100 µM (inactive)	> 100 µM (inactive)	–	> 100 µM (inactive)
O[C@H]1[C@H]2c3cc4c(cc3CN3CCC(=C[C@@H]1O)[C@H]23)OCO4 [LYCORINE]	0.3 µM (active)	0.376 µM (active)	2.69 µM (inactive)	1.2 µM (inactive)	1.47 µM (inactive)	2.7 µM (inactive)	1.65 µM (inactive)	0.201 µM (active)	1.24 µM (inactive)	1.26 µM (inactive)	2.07 µM (inactive)	1.82 µM (inactive)	1.05 µM (active)	2.01 µM (inactive)	2.14 µM (inactive)	1.8 µM (inactive)	2.08 µM (inactive)	–	2.33 µM (inactive)
O=C(Nc1nnc(-c2c(Cl)c(Cl)c(Cl)c(Cl)c2-c2nc3cc(C(=O)c4ccccc4)ccc3[nH]2)o1)c1ccc(Cl)cc1	26.5 µM (inactive)	29.6 µM (inactive)	5.86 µM (inactive)	7.91 µM (inactive)	4.88 µM (inactive)	36.7 µM (inactive)	48.6 µM (inactive)	20.2 µM (inactive)	40.7 µM (inactive)	–	6.31 µM (inactive)	6.27 µM (inactive)	–	81.7 µM (inactive)	20.3 µM (inactive)	22.4 µM (inactive)	–	20.5 µM (inactive)	–
CCN(CC)CCCC(C)Nc1ccnc2cc3ccccc3cc12 (stereo unspecified)	9.53 µM (inactive)	23.9 µM (inactive)	5.82 µM (inactive)	7 µM (inactive)	3.75 µM (inactive)	–	8.57 µM (inactive)	5.35 µM (inactive)	9.2 µM (inactive)	3.57 µM (inactive)	7.85 µM (inactive)	> 100 µM (inactive)	10.4 µM (inactive)	13.5 µM (inactive)	10.7 µM (inactive)	22.8 µM (inactive)	17.2 µM (inactive)	12.3 µM (inactive)	–
CSC1=C(C(=O)Nc2ccccc2)C(N)=NC1=O	79.3 µM (inactive)	> 100 µM (inactive)	–	> 100 µM (inactive)	32.4 µM (inactive)	> 100 µM (inactive)	> 100 µM (inactive)	89.7 µM (inactive)	27.5 µM (inactive)	> 100 µM (inactive)	> 100 µM (inactive)	> 100 µM (inactive)	11.3 µM (inactive)	> 100 µM (inactive)	> 100 µM (inactive)	> 100 µM (inactive)	62.8 µM (inactive)	–	> 100 µM (inactive)
CNc1cccc2c1C(C)C[C@]1(C)C(=O)Nc3ccccc3[C@H]21 (stereo partly specified)	23.2 µM (inactive)	24.1 µM (inactive)	17.7 µM (inactive)	> 100 µM (inactive)	23.8 µM (inactive)	30.3 µM (inactive)	20.6 µM (inactive)	22.3 µM (inactive)	26.5 µM (inactive)	21.2 µM (inactive)	23.5 µM (inactive)	40.7 µM (inactive)	20.5 µM (inactive)	54.6 µM (inactive)	> 100 µM (inactive)	42 µM (inactive)	37.7 µM (inactive)	–	51.3 µM (inactive)
CC(C)(C)OC(=O)N(CCNS(=O)(=O)c1cccc2cnccc12)CCC(=O)ON1C(=O)CCC1=O	> 100 µM (inactive)	> 100 µM (inactive)	> 100 µM (inactive)	> 100 µM (inactive)	> 100 µM (inactive)	> 100 µM (inactive)	> 100 µM (inactive)	> 100 µM (inactive)	–	51.9 µM (inactive)	> 100 µM (inactive)	–	> 100 µM (inactive)	> 100 µM (inactive)	–	–	> 100 µM (inactive)	10.4 µM (inactive)	–
COC(=O)/C=C(/OC)[C@H](C)[C@H](/C=C/c1csc(-c2csc(C(C)C)n2)n1)OC	1.35 µM (inactive)	28 µM (inactive)	0.0681 µM (active)	0.52 µM (active)	0.0929 µM (active)	63.5 µM (inactive)	4.69 µM (inactive)	0.178 µM (active)	7.08 µM (inactive)	0.0521 µM (active)	0.925 µM (active)	18.2 µM (inactive)	1.21 µM (inactive)	0.373 µM (active)	2.51 µM (inactive)	8.79 µM (inactive)	0.33 µM (active)	6.07 µM (inactive)	–
c1ccc(CSCCc2ccncc2)cc1	> 100 µM (inactive)	41.5 µM (inactive)	> 100 µM (inactive)	> 100 µM (inactive)	–	> 100 µM (inactive)	15.8 µM (inactive)	> 100 µM (inactive)	< 0.01 µM (active)	> 100 µM (inactive)	> 100 µM (inactive)	> 100 µM (inactive)	69 µM (inactive)	49.9 µM (inactive)	50.8 µM (inactive)	> 100 µM (inactive)	> 100 µM (inactive)	15.2 µM (inactive)	> 100 µM (inactive)
